Reference: ChEMBL document CHEMBL1201862, “PubChem BioAssay data set” (2004)
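Tested at 5 concentrations; 48 h exposure; 96-well plates; endpoints linearly interpolated, else capped at highest concentration. GI50 = concentration required for 50% inhibition of growth.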 Active and inactive are the calls of the source. No stated cut-off is given here; in the data, active = GI50 up to about 1.1 µM and inactive = higher.

How the values were obtained:
Test in all cases: NCI anticancer screen, dose series, 48 h
RPMI-8226 = tested on: RPMI-8226
MDA-MB-435 = tested on: MDA-MB-435
SK-OV-3 = tested on: SK-OV-3
OVCAR-3 = tested on: OVCAR-3
SW-620 = tested on: SW-620
HCT-116 = tested on: HCT-116
OVCAR-5 = tested on: OVCAR-5
CCRF-CEM = tested on: CCRF-CEM
UACC-257 = tested on: UACC-257
EKVX = tested on: EKVX
MDA-MB-231 = tested on: MDA-MB-231
HT-29 = tested on: HT-29
MDA-N = tested on: MDA-N
NCI-H226 = tested on: NCI-H226
DU-145 = tested on: DU-145
HCT-15 = tested on: HCT-15
OVCAR-4 = tested on: OVCAR-4

Measured: GI50

CCOC(=O)COc1cc(-c2ccccc2F)nc2cc3c(cc12)OCO3
inactive: RPMI-8226 42 µM | MDA-MB-435 > 100 µM | SK-OV-3 > 100 µM | OVCAR-3 > 10 µM | SW-620 > 100 µM | HCT-116 72.3 µM | OVCAR-5 > 100 µM | CCRF-CEM 23.2 µM | UACC-257 > 100 µM | EKVX 85.5 µM | MDA-MB-231 > 100 µM | HT-29 > 100 µM | MDA-N > 100 µM | NCI-H226 > 100 µM | DU-145 > 100 µM
39.9 µM: HCT-15

O=C1CC2(CCNCC2)C(=O)N1N1CCCCC1
inactive: RPMI-8226 > 100 µM | SK-OV-3 > 100 µM | OVCAR-3 > 100 µM | OVCAR-4 > 100 µM | SW-620 > 100 µM | HCT-116 > 100 µM | OVCAR-5 > 100 µM | CCRF-CEM > 100 µM | UACC-257 > 100 µM | EKVX > 100 µM | MDA-MB-231 > 100 µM | HT-29 > 100 µM | MDA-N > 100 µM | NCI-H226 > 100 µM | DU-145 > 100 µM
> 100 µM: HCT-15

Cc1ccc(Nc2nc(NNC(=O)Cc3ccccc3)nc(NNC(=O)c3ccncc3)n2)cc1
inactive: RPMI-8226 > 10 µM | SK-OV-3 > 10 µM | OVCAR-4 > 10 µM | SW-620 > 10 µM | CCRF-CEM > 10 µM | UACC-257 > 10 µM | EKVX > 10 µM | MDA-MB-231 > 10 µM | HT-29 > 10 µM | MDA-N > 10 µM | DU-145 > 10 µM
> 10 µM: HCT-15

COc1ccc(OC)c2c(C(C)=O)cccc12
inactive: RPMI-8226 > 100 µM | SK-OV-3 > 100 µM | OVCAR-3 > 100 µM | SW-620 > 100 µM | HCT-116 > 100 µM | OVCAR-5 > 100 µM | CCRF-CEM > 100 µM | UACC-257 > 100 µM | EKVX > 100 µM | MDA-MB-231 > 100 µM | NCI-H226 46.2 µM | DU-145 > 100 µM
> 100 µM: HCT-15

CCN(CC)CCCNc1n[n+]([O-])c2ccccc2[n+]1[O-]
2.5 µM: HCT-15
inactive: RPMI-8226 4.21 µM | MDA-MB-435 38.4 µM | OVCAR-3 > 10 µM | OVCAR-4 23.7 µM | SW-620 15.1 µM | HCT-116 11 µM | OVCAR-5 20.5 µM | CCRF-CEM 14.2 µM | UACC-257 14.2 µM | MDA-MB-231 6.01 µM | HT-29 11.1 µM | MDA-N 11.9 µM | NCI-H226 20.5 µM | DU-145 18.4 µM

CC1CN=C(N(C)C(=O)Nc2ccc(Cl)cc2)S1 (stereo unspecified)
inactive: RPMI-8226 > 10 µM | SK-OV-3 46 µM | OVCAR-3 27.2 µM | OVCAR-4 65.2 µM | SW-620 20.4 µM | HCT-116 4.89 µM | OVCAR-5 4.47 µM | CCRF-CEM > 10 µM | UACC-257 11.5 µM | EKVX 21.4 µM | MDA-MB-231 32.1 µM | HT-29 31.3 µM | MDA-N 8.69 µM | DU-145 12.9 µM
0.841 µM: HCT-15

COc1c2occc2c(N)c2ccc(=O)oc12
inactive: RPMI-8226 > 100 µM | MDA-MB-435 > 100 µM | OVCAR-3 > 100 µM | OVCAR-4 > 100 µM | SW-620 > 100 µM | HCT-116 > 100 µM | OVCAR-5 > 100 µM | CCRF-CEM 93.5 µM | UACC-257 > 100 µM | EKVX 51.9 µM | MDA-MB-231 > 100 µM | HT-29 > 100 µM | MDA-N > 100 µM | NCI-H226 29.5 µM | DU-145 > 100 µM
> 100 µM: HCT-15

COc1ccc(N[S+]([O-])C2CCCCC2)cc1 (stereo unspecified)
> 100 µM: HCT-15
inactive: RPMI-8226 > 100 µM | MDA-MB-435 > 100 µM | OVCAR-3 > 100 µM | SW-620 > 100 µM | HCT-116 > 100 µM | OVCAR-5 > 100 µM | CCRF-CEM > 100 µM | UACC-257 > 100 µM | EKVX > 100 µM | MDA-MB-231 > 100 µM | HT-29 > 100 µM | NCI-H226 > 100 µM | DU-145 > 100 µM

COC(=O)C1=C(C(=O)OC)SC2(S1)C(C(=O)OC)=C(C(=O)OC)Sc1c2ss/c1=N\c1ccc(Cl)cc1
active: MDA-MB-435 0.794 µM | SW-620 0.425 µM | HCT-116 0.283 µM | CCRF-CEM 0.197 µM | UACC-257 1.1 µM | MDA-MB-231 0.948 µM | HT-29 0.525 µM | MDA-N 0.47 µM | DU-145 0.479 µM
0.318 µM: HCT-15
inactive: SK-OV-3 2 µM | OVCAR-3 1.39 µM | OVCAR-4 1.18 µM | OVCAR-5 1.45 µM | EKVX 1.45 µM | NCI-H226 1.79 µM

COc1cc(CC(C)NC(C)=O)cc(OC)c1 (stereo unspecified)
> 100 µM: HCT-15
inactive: RPMI-8226 > 100 µM | MDA-MB-435 > 100 µM | SK-OV-3 > 100 µM | OVCAR-3 > 100 µM | SW-620 > 100 µM | HCT-116 > 100 µM | OVCAR-5 > 100 µM | CCRF-CEM > 100 µM | UACC-257 > 100 µM | MDA-MB-231 > 100 µM | HT-29 > 100 µM | MDA-N > 100 µM | NCI-H226 > 100 µM | DU-145 > 100 µM

CC(=O)OC(OC(C)=O)c1c2ccccc2cc2ccccc12
7.55 µM: HCT-15
inactive: RPMI-8226 16.6 µM | MDA-MB-435 24.6 µM | SK-OV-3 20.9 µM | OVCAR-3 21.4 µM | SW-620 3.18 µM | HCT-116 10.3 µM | OVCAR-5 30.5 µM | CCRF-CEM 2.39 µM | UACC-257 21 µM | EKVX 20 µM | MDA-MB-231 18 µM | HT-29 13.4 µM | MDA-N 22 µM | NCI-H226 17.9 µM | DU-145 27.9 µM

CC1(C)CC(=O)c2c(nc3ccc4ccccc4c3c2-c2ccc(NC(=O)CCCC(=O)Nc3ccc(-c4c5c(nc6ccc7ccccc7c46)CC(C)(C)CC5=O)cc3)cc2)C1
inactive: RPMI-8226 > 100 µM | MDA-MB-435 > 100 µM | SK-OV-3 > 100 µM | OVCAR-3 > 100 µM | SW-620 > 100 µM | HCT-116 > 100 µM | OVCAR-5 > 100 µM | CCRF-CEM > 100 µM | UACC-257 > 100 µM | EKVX > 100 µM | MDA-MB-231 > 100 µM | HT-29 > 100 µM | MDA-N > 100 µM | NCI-H226 > 100 µM | DU-145 > 100 µM
> 100 µM: HCT-15

Nc1nc(N)c2ncn(Cc3ccccc3CO)c2n1
inactive: RPMI-8226 > 100 µM | MDA-MB-435 > 100 µM | SK-OV-3 > 100 µM | OVCAR-3 > 100 µM | OVCAR-4 > 100 µM | SW-620 > 100 µM | HCT-116 > 100 µM | OVCAR-5 > 100 µM | CCRF-CEM 29.7 µM | UACC-257 > 100 µM | EKVX > 100 µM | MDA-MB-231 > 100 µM | HT-29 > 100 µM | NCI-H226 > 100 µM | DU-145 > 100 µM
> 100 µM: HCT-15

CC(=O)OCC1(CNc2nc(N)ncc2C#N)CC(CCc2ccccc2)C1 (stereo unspecified)
inactive: MDA-MB-435 26.2 µM | OVCAR-4 > 100 µM | SW-620 > 100 µM | HCT-116 5.43 µM | OVCAR-5 > 100 µM | CCRF-CEM 57 µM | UACC-257 > 100 µM | EKVX 6.01 µM | MDA-MB-231 10.4 µM | HT-29 > 100 µM | MDA-N 28.6 µM | NCI-H226 42 µM | DU-145 32.1 µM
> 100 µM: HCT-15

CC1SC(=O)SC1C (stereo unspecified)
inactive: RPMI-8226 > 100 µM | MDA-MB-435 > 100 µM | SK-OV-3 > 100 µM | OVCAR-4 > 100 µM | SW-620 > 100 µM | HCT-116 > 100 µM | OVCAR-5 > 100 µM | CCRF-CEM > 100 µM | UACC-257 > 100 µM | EKVX > 100 µM | MDA-MB-231 > 100 µM | MDA-N > 100 µM
> 100 µM: HCT-15

COc1ccc(-c2c(C#N)c(N)n(C3OCC(O)C(O)C3O)c(=S)c2C#N)cc1 (stereo unspecified)
> 100 µM: HCT-15
inactive: RPMI-8226 > 100 µM | MDA-MB-435 > 100 µM | SK-OV-3 > 100 µM | OVCAR-3 > 100 µM | SW-620 > 100 µM | OVCAR-5 > 100 µM | CCRF-CEM > 100 µM | MDA-MB-231 > 100 µM | HT-29 > 100 µM | MDA-N > 100 µM | NCI-H226 > 100 µM | DU-145 > 100 µM

COc1cc(Nc2cnc3cc(F)c(F)cc3n2)cc(OC)c1OC
inactive: MDA-MB-435 > 100 µM | SK-OV-3 > 100 µM | OVCAR-3 > 100 µM | OVCAR-4 > 100 µM | SW-620 > 100 µM | HCT-116 > 100 µM | OVCAR-5 > 100 µM | CCRF-CEM > 100 µM | UACC-257 > 100 µM | EKVX > 100 µM | HT-29 > 100 µM | MDA-N > 100 µM | NCI-H226 > 100 µM | DU-145 > 100 µM
> 100 µM: HCT-15

COC(=O)[C@H]1C=NN[C@@H]1C(=O)N1[C@H]2CC3CC[C@@]2(CS1(=O)=O)C3(C)C
> 100 µM: HCT-15
inactive: RPMI-8226 > 100 µM | MDA-MB-435 > 100 µM | SK-OV-3 > 100 µM | OVCAR-4 > 100 µM | SW-620 > 100 µM | HCT-116 > 100 µM | OVCAR-5 > 100 µM | CCRF-CEM > 100 µM | UACC-257 > 100 µM | EKVX > 100 µM | MDA-MB-231 > 100 µM | NCI-H226 > 100 µM | DU-145 > 100 µM

NCCCN(CCCCN(CCCN)C(=O)OCc1ccccc1)C(=O)OCc1ccccc1
inactive: RPMI-8226 73.3 µM | MDA-MB-435 > 100 µM | SK-OV-3 > 100 µM | OVCAR-3 43.2 µM | OVCAR-4 > 100 µM | SW-620 > 100 µM | HCT-116 > 100 µM | OVCAR-5 > 100 µM | CCRF-CEM 47 µM | UACC-257 93.5 µM | EKVX > 100 µM | MDA-MB-231 35.6 µM | HT-29 > 100 µM | NCI-H226 > 100 µM | DU-145 > 100 µM
> 100 µM: HCT-15
